From patent US7951815B2, “Substituted 1,4,8-triazaspiro [4,5]decan-2-one compounds” (Gruenenthal GmbH, priority 2004, dated 2011)

These compounds were tested on batrachotoxin (BTX) binding site of the sodium channel (assay: Affinity to the batrachotoxin (BTX) binding site of the sodium channel). Settings: Table II; rat cerebrocortex synaptosomes; test concentration not given.

SMILES | BTX inhibition
Cl.O=C(c1ccc(Cl)cc1)N1CCC2(CC1)N[C@@H](Cc1ccccc1)C(=O)N2Cc1ccc(F)cc1 (racemic) [Example 28, 3-(S,R)-benzyl-8-(4-chlorobenzoyl)-1-(4-fluorobenzyl)-1,4,8-triazaspiro[4,5]decan-2-one hydrochloride] | 47
Cl.O=C(C(c1ccccc1)c1ccccc1)N1CCC2(CC1)N[C@@H](Cc1ccccc1)C(=O)N2Cc1ccccc1 [Example 56, 1,3-(S)-dibenzyl-8-diphenylacetyl-1,4,8-triazaspiro[4,5]decan-2-one hydrochloride] | 67
COc1cccc(C(=O)N2CCC3(CC2)N[C@@H](Cc2ccccc2)C(=O)N3Cc2ccccc2)c1.Cl [Example 61, 1,3-(S)-dibenzyl-8-(3-methoxybenzoyl)-1,4,8-triazaspiro[4,5]decan-2-one hydrochloride] | 41

Same assay, conditions: Table III; rat cerebrocortex synaptosomes; test concentration not given

SMILES | BTX inhibition
CSCCC1NC2(CCN(C(=O)c3c(-c4ccccc4Cl)noc3C)CC2)N(Cc2cc(C)cc(C)c2)C1=O (stereo not drawn) [Example 169, 8-[3-(2-Chlorophenyl)-5-methylisoxazole-4-carbonyl]-1-(3,5-dimethylbenzyl)-3-(2-methylsulfanylethyl)-1,4,8-triazaspiro[4,5]decan-2-one] | 51
CCCCC(=O)N1CCC2(CC1)NCC(=O)N2Cc1cccc(C#N)c1 [Example 268, 3-(2-Oxo-8-pentanoyl-1,4,8-triazaspiro[4,5]dec-1-ylmethyl)benzonitrile] | 31
CN1C(=O)C(Cc2ccccc2)NC12CCN(C(=O)COc1ccccc1)CC2 (stereo not drawn) [Example 184, 3-Benzyl-1-methyl-8-(2-phenoxyacetyl)-1,4,8-triazaspiro[4,5]decan-2-one] | 62
COc1ccc(CC(=O)N2CCC3(CC2)NC(CCSC)C(=O)N3Cc2ccc(F)cc2)cc1 (stereo not drawn) [Example 215, 1-(4-Fluorobenzyl)-8-[2-(4-methoxyphenyl)acetyl]-3-(2-methylsulfanylethyl)-1,4,8-triazaspiro[4,5]decan-2-one] | 32
CC(C)CC1NC2(CCN(C(=O)c3cc(C(F)(F)F)ccc3Cl)CC2)N(Cc2c(Cl)cccc2Cl)C1=O (stereo not drawn) [Example 326, 8-(2-Chloro-5-trifluoromethylbenzoyl)-1-(2,6-dichlorobenzyl)-3-isobutyl-1,4,8-triazaspiro[4,5]decan-2-one] | 68
C=CCCC(=O)N1CCC2(CC1)NC(C(C)C)C(=O)N2CC=C (stereo not drawn) [Example 307, 1-Allyl-3-isopropyl-8-pent-4-enoyl-1,4,8-triazaspiro[4,5]decan-2-one] | 31
CC(C)C1NC2(CCN(C(=O)COc3cccc(Cl)c3)CC2)N(CCOc2ccccc2)C1=O (stereo not drawn) [Example 165, 8-[2-(3-Chlorophenoxy)acetyl]-3-isopropyl-1-(2-phenoxyethyl)-1,4,8-triazaspiro[4,5]decan-2-one] | 63
O=C(c1ccnc(Cl)c1)N1CCC2(CC1)NCC(=O)N2Cc1ccccc1F [Example 300, 8-(2-Chloropyridin-4-carbonyl)-1-(2-fluorobenzyl)-1,4,8-triazaspiro[4,5]decan-2-one] | 33
O=C(c1ccc(-c2ccccc2)cc1)N1CCC2(CC1)NCC(=O)N2Cc1ccccc1 [Example 72, 1-Benzyl-8-(biphenyl-4-carbonyl)-1,4,8-triazaspiro[4,5]decan-2-one] | 39
CCOC(=O)CN1C(=O)C(CCSC)NC12CCN(C(=O)c1ccc(C(F)(F)F)cc1)CC2 (stereo not drawn) [Example 322, Ethyl [3-(2-methylsulfanylethyl)-2-oxo-8-(4-trifluoromethylbenzoyl)-1,4,8-triazaspiro[4,5]dec-1-yl]acetate] | 36
C=CCN1C(=O)C(CCSC)NC12CCN(C(=O)c1c(F)c(F)c(F)c(F)c1F)CC2 (stereo not drawn) [Example 302, 1-Allyl-3-(2-methylsulfanylethyl)-8-pentafluorobenzoyl-1,4,8-triazaspiro[4,5]decan-2-one] | 39
COC(=O)c1ccc(CN2C(=O)C(C(C)C)NC23CCN(C(=O)CC(C)(C)C)CC3)cc1 (stereo not drawn) [Example 198, Methyl 4-[8-(3,3-dimethylbutyryl)-3-isopropyl-2-oxo-1,4,8-triazaspiro[4,5]dec-1-ylmethyl]benzoate] | 30
Cc1onc(-c2c(F)cccc2Cl)c1C(=O)N1CCC2(CC1)NC(C(C)C)C(=O)N2CCOc1ccccc1 (stereo not drawn) [Example 131, 8-[3-(2-Chloro-6-fluorophenyl)-5-methylisoxazole-4-carbonyl]-3-isopropyl-1-(2-phenoxyethyl)-1,4,8-triazaspiro[4,5]decan-2-one] | 37
CC(C)CC1NC2(CCN(C(=O)CCC3CCCC3)CC2)N(Cc2ccccc2F)C1=O (stereo not drawn) [Example 220, 8-(3-Cyclopentylpropionyl)-1-(2-fluorobenzyl)-3-isobutyl-1,4,8-triazaspiro[4,5]decan-2-one] | 62
CC(C)CC1NC2(CCN(C(=O)CC3CCCC3)CC2)N(Cc2ccc(F)cc2)C1=O (stereo not drawn) [Example 197, 8-(2-Cyclopentylacetyl)-1-(4-fluorobenzyl)-3-isobutyl-1,4,8-triazaspiro[4,5]decan-2-one] | 41
CCCCC(CC)C(=O)N1CCC2(CC1)NCC(=O)N2CCOc1ccccc1 (stereo not drawn) [Example 133, 8-(2-Ethylhexanoyl)-1-(2-phenoxyethyl)-1,4,8-triazaspiro[4,5]decan-2-one] | 35
CCCCC(=O)N1CCC2(CC1)NC(CCSC)C(=O)N2Cc1cc(C)cc(C)c1 (stereo not drawn) [Example 189, 1-(3,5-Dimethylbenzyl)-3-(2-methylsulfanylethyl)-8-pentanoyl-1,4,8-triazaspiro[4,5]decan-2-one] | 40

SMILES | BTX inhibition
CN1C(=O)C(Cc2ccccc2)NC12CCN(C(=O)C1COc3ccc(Cl)cc3C1)CC2 (stereo not drawn) [Example 242, 3-Benzyl-8-(6-chloro-2H-chroman-3-carbonyl)-1-methyl-1,4,8-triazaspiro[4,5]decan-2-one] | 42
CC(C)C1NC2(CCN(C(=O)C3COc4ccc(Cl)cc4C3)CC2)N(Cc2ccccc2C#N)C1=O (stereo not drawn) [Example 245, 2-[8-(6-Chloro-2H-chroman-3-carbonyl)-3-isopropyl-2-oxo-1,4,8-triazaspiro[4,5]dec-1-ylmethyl]benzonitrile] | 60
CSCCC1NC2(CCN(C(=O)c3cccc(C)c3C)CC2)N(C)C1=O (stereo not drawn) [Example 166, 8-(2,3-Dimethylbenzoyl)-1-methyl-3-(2-methylsulfanylethyl)-1,4,8-triazaspiro[4,5]decan-2-one] | 47
CC(C)C1NC2(CCN(C(=O)c3cccc(Cl)c3F)CC2)N(Cc2ccccc2C#N)C1=O (stereo not drawn) [Example 247, 2-[8-(3-Chloro-2-fluorobenzoyl)-3-isopropyl-2-oxo-1,4,8-triazaspiro[4,5]dec-1-ylmethyl]benzonitrile] | 32
COC(=O)c1ccc(CN2C(=O)CNC23CCN(C(=O)c2snnc2C)CC3)cc1 [Example 258, Methyl 4-[8-(4-methyl[1,2,3]thiadiazole-5-carbonyl)-2-oxo-1,4,8-triazaspiro[4,5]dec-1-ylmethyl]benzoate] | 32
Cc1oc(C(C)(C)C)cc1C(=O)N1CCC2(CC1)NC(C(C)C)C(=O)N2CCOc1ccccc1 (stereo not drawn) [Example 196, 8-(5-tert-Butyl-2-methylfuran-3-carbonyl)-3-isopropyl-1-(2-phenoxyethyl)-1,4,8-triazaspiro[4,5]decan-2-one] | 52
C#CCN1C(=O)C(CCSC)NC12CCN(C(=O)c1ccc(-c3ccccc3)cc1)CC2 (stereo not drawn) [Example 213, 8-(Biphenyl-4-carbonyl)-3-(2-methylsulfanylethyl)-1-prop-2-ynyl-1,4,8-triazaspiro[4,5]decan-2-one] | 43
CC(C)CC1NC2(CCN(C(=O)c3ccc(C(F)(F)F)c(F)c3)CC2)N(Cc2ccccc2)C1=O (stereo not drawn) [Example 241, 1-Benzyl-8-(3-fluoro-4-trifluoromethylbenzoyl)-3-isobutyl-1,4,8-triazaspiro[4,5]decan-2-one] | 58
CCOc1ccc(C(=O)N2CCC3(CC2)NC(CC(C)C)C(=O)N3Cc2ccccc2)cc1 (stereo not drawn) [Example 179, 1-Benzyl-8-(4-ethoxybenzoyl)-3-isobutyl-1,4,8-triazaspiro[4,5]decan-2-one] | 46
CSCCC1NC2(CCN(C(=O)c3cccc(Cl)c3F)CC2)N(Cc2cc(C)cc(C)c2)C1=O (stereo not drawn) [Example 156, 8-(3-Chloro-2-fluorobenzoyl)-1-(3,5-dimethylbenzyl)-3-(2-methylsulfanylethyl)-1,4,8-triazaspiro[4,5]decan-2-one] | 60
Cc1cccc(C(=O)N2CCC3(CC2)NC(CC(C)C)C(=O)N3Cc2ccccc2F)c1 (stereo not drawn) [Example 132, 1-(2-Fluorobenzyl)-3-isobutyl-8-(3-methylbenzoyl)-1,4,8-triazaspiro[4,5]decan-2-one] | 54
CSCCC1NC2(CCN(C(=O)C=Cc3cccc(C(F)(F)F)c3)CC2)N(C)C1=O (stereo not drawn) [Example 208, 1-Methyl-3-(2-methylsulfanylethyl)-8-[3-(3-trifluoromethylphenyl)acryloyl]-1,4,8-triazaspiro[4,5]decan-2-one] | 33
CCCCN1C(=O)C(C(C)C)NC12CCN(C(=O)CC1CCCC1)CC2 (stereo not drawn) [Example 201, 1-Butyl-8-(2-cyclopentylacetyl)-3-isopropyl-1,4,8-triazaspiro[4,5]decan-2-one] | 42
CSCCC1NC2(CCN(C(=O)c3cccc(N(C)C)c3)CC2)N(Cc2cc(C)cc(C)c2)C1=O (stereo not drawn) [Example 137, 8-(3-Dimethylaminobenzoyl)-1-(3,5-dimethylbenzyl)-3-(2-methylsulfanylethyl)-1,4,8-triazaspiro[4,5]decan-2-one] | 59
CCOc1ccc(C(=O)N2CCC3(CC2)NC(Cc2ccccc2)C(=O)N3C)cc1 (stereo not drawn) [Example 135, 3-Benzyl-8-(4-ethoxybenzoyl)-1-methyl-1,4,8-triazaspiro[4,5]decan-2-one] | 31
CSCCC1NC2(CCN(C(=O)c3c(-c4c(F)cccc4Cl)noc3C)CC2)N(Cc2cccc(C#N)c2)C1=O (stereo not drawn) [Example 181, 3-[8-[3-(2-Chloro-6-fluorophenyl)-5-methylisoxazole-4-carbonyl]-3-(2-methylsulfanylethyl)-2-oxo-1,4,8-triazaspiro[4,5]dec-1-ylmethyl]benzonitrile] | 43
